From paper PMC11938010, “Positive Charge in an Antimalarial Compound Unlocks Broad-Spectrum Antibacterial Activity” (JACS Au, 2025) come the findings set out here.

Data set [1] deals with Plasmodium falciparum NF54. The data set can be described thus: P. falciparum in vitro drug sensitivity assay on asexual blood stage parasites ([3H]-hypoxanthine incorporation). The following applies: for IC50: read-out: PfNF54 IC50. It counts as cell-based.
The next data set has as its system Escherichia coli ∆tolC. The data set can be described thus: microbe, parasite or virus in culture. It counts as cell-based. The following applies: for MIC / inhibition at 50 µM: Escherichia coli; for inhibition at 50 µM: read-out: Ec∆tolC inh. at 50 µM (%).
Data set [2] has as its system Streptococcus pneumoniae (DSM20566). The data set can be described thus: In vitro antibacterial activity (MIC), S. pneumoniae. The data set is classed as cell-based. The following applies: Streptococcus pneumoniae, DSM20566, read-out: Sp MIC95.
Data set [3] concerns Staphylococcus aureus ssp. Aureus. The data set can be described thus: In vitro antibacterial activity (MIC), S. aureus. The following applies: Staphylococcus aureus, read-out: Sa MIC95. The data set is classed as cell-based.
The next data set is described as follows: in vitro. The following applies: human.
The subject of data set [4] is Mycobacterium tuberculosis (Mtb) strain H37Rv. The data set can be described thus: microbe, parasite or virus in culture. The data set is classed as cell-based. The following applies: 168 h, 7 days, footnote b: not active at maximum solubility, read-out: MtbH37Rv MIC90.
The test system of a further data set is E. coli K12. The data set can be described thus: In vitro antibacterial activity (growth inhibition, OD600), E. coli wild-type. The data set is classed as cell-based. The following applies: Escherichia coli, K12, 50 µM; Table S1, with standard deviation; read-out: EcK12 inh. at 50 µM (%).
A further data set concerns Acinetobacter baumannii. The data set can be described thus: In vitro antibacterial activity (growth inhibition, OD600), A. baumannii. It counts as cell-based. The following applies: 50 µM, Table S1, with standard deviation, read-out: Ab inh. at 50 µM (%).
For data set [5], the system named is Pseudomonas aeruginosa PA14. The data set can be described thus: In vitro antibacterial activity (growth inhibition, OD600), P. aeruginosa. It counts as cell-based. The following applies: PA14, 50 μM compound, Table 1 and main text, read-out: PA14 inh. at 50 μM.
Setting [6] is: Plasmodium falciparum, NF54, Table 1 and main text.
Setting [7] is: Table S2, with standard deviation.

Values after ≈ are worked out from the molar mass of the structure shown. Where two headings read alike, the source gives them in different places.

Turning to `CC(C)(C)OC(=O)N1CCN(c2ccc(NC(=O)c3cc(-c4cc(Cl)ccc4O)[nH]n3)cc2)CC1` [Compound 6B], in data set [1] (setting [6]), the IC50 (commonly the concentration that inhibits the measured activity by half) was 1.61 µM. The MIC in the data set with Escherichia coli ∆tolC (read-out: EcΔtolC MIC95) is over 50 µM; in data set [2] (Table 1 and main text), over 50 µM; in [2] (setting [7]), over 50 µM; in data set [3] (Table 1 and main text), over 50 µM; in data set [3] (setting [7]) it was over 50 µM. Besides, in the data set on Escherichia coli ∆tolC, the inhibition at 50 µM was under 10%. Further, in “in vitro” (HepG2 CC50, 48 h, MTT), the CC50 is over 50 µM.
Turning to `O=C(c1cc(-c2cc(Cl)ccc2O)[nH]n1)N1CCNCC1` [Compound 14A, (5-(5-Chloro-2-hydroxyphenyl)-1H-pyrazol-3-yl)(piperazin-1-yl)methanone], the IC50 in data set [1] (setting [6]) came out at 3.3 µM. Further, the “PfNF54 IC50” value in data set [1] (Table 1 and main text) is “inactive”. Moreover, the MIC is over 50 µM with Escherichia coli ∆tolC (read-out: EcΔtolC MIC95); over 50 µM in [2] (Table 1 and main text); over 50 µM in data set [2] (setting [7]); over 50 µM in data set [3] (Table 1 and main text); over 50 µM in data set [3] (setting [7]). Further, the inhibition at 50 µM with Escherichia coli ∆tolC is 18 ± 4%. Also, the MIC90 in data set [4] is over 16 µM. Also, the CC50 in “in vitro” (HepG2 CC50, 48 h, MTT) is over 50 µM.
As for `CC(C)(C)OC(=O)N1CCN(Cc2cccc(NC(=O)c3cc(-c4cc(Cl)ccc4O)[nH]n3)c2)CC1` [Compound 3B], in data set [1] (setting [6]), the IC50 was found to be 1 µM. For the same compound, the MIC with Escherichia coli ∆tolC (read-out: EcΔtolC MIC95) was over 50 µM; in data set [2] (Table 1 and main text) it was over 50 µM; in data set [2] (setting [7]), over 50 µM; in data set [3] (Table 1 and main text), over 50 µM; in [3] (setting [7]), over 50 µM. Besides, in the data set with E. coli K12, the inhibition at 50 µM is under 10%. The CC50 in the data set “in vitro” (HepG2 CC50, 48 h, MTT) came to 25 µM.
For `CC(C)(C)OC(=O)NCc1cc(NC(=O)c2cc(-c3cc(Cl)ccc3O)[nH]n2)cc(C(F)(F)F)c1` [Compound 9B, tert-Butyl (3-(5-(5-chloro-2-hydroxyphenyl)-1H-pyrazole-3-carboxamido)-5-(trifluoromethyl)benzyl)carbamate], the IC50 in data set [1] (setting [6]) is 0.203 µM. In addition, the MIC with Escherichia coli ∆tolC (read-out: EcΔtolC MIC95) was over 50 µM; in data set [2] (Table 1 and main text), 30 µM (≈ 15.3 µg/mL); in data set [2] (setting [7]), 30 ± 5 µM (≈ 15.3 µg/mL); in [3] (Table 1 and main text), over 50 µM; in [3] (setting [7]), over 50 µM. Also, the inhibition at 50 µM with Escherichia coli ∆tolC is 48 ± 8%. In addition, the MIC90 in data set [4] was over 64 µM. In addition, the CC50 in “in vitro” (HepG2 CC50, 48 h, MTT) was 5 µM.
With `CC(C)(C)OC(=O)NCc1cccc(NC(=O)c2cc(-c3cc(Cl)ccc3O)[nH]n2)c1` [Compound 7B], the IC50 in [1] (setting [6]) was found to be 1.1 µM. Moreover, the MIC in the data set with Escherichia coli ∆tolC (read-out: EcΔtolC MIC95) was over 50 µM; in [2] (Table 1 and main text), over 50 µM; in data set [2] (setting [7]), over 50 µM; in data set [3] (Table 1 and main text), over 50 µM; in data set [3] (setting [7]), over 50 µM. Moreover, the inhibition at 50 µM in the data set with Escherichia coli ∆tolC and with E. coli K12 was under 10% each time. In the data set “in vitro” (HepG2 CC50, 48 h, MTT), this compound gave a CC50 of over 50 µM.
As for `O=C(c1cc(-c2cc(Cl)ccc2O)[nH]n1)N1CCOCC1` [Compound 1e], the IC50 in [1] (setting [6]) was over 5 µM. Further, in [1] (Table 1 and main text), the “PfNF54 IC50” value is “inactive”. The MIC in the data set on Escherichia coli ∆tolC (read-out: EcΔtolC MIC95) was over 50 µM; in data set [2] (Table 1 and main text), over 50 µM; in data set [2] (setting [7]), over 50 µM; in [3] (Table 1 and main text), over 50 µM; in data set [3] (setting [7]), over 50 µM. In the data set on Escherichia coli ∆tolC, the inhibition at 50 µM worked out at 23 ± 3%. The MIC90 in data set [4] was over 16 µM. The compound further showed a CC50 in “in vitro” (HepG2 CC50, 48 h, MTT) of over 50 µM.
Take `CC(C)(C)OC(=O)N1CCN(c2cccc(NC(=O)c3cc(-c4cc(Cl)ccc4O)[nH]n3)c2)CC1` [Compound 5B]: in data set [1] (setting [6]), the IC50 is 0.9 µM. The MIC with Escherichia coli ∆tolC (read-out: EcΔtolC MIC95) is over 50 µM; in data set [2] (Table 1 and main text) it was over 50 µM; in [2] (setting [7]), over 50 µM; in data set [3] (Table 1 and main text) it was over 50 µM; in [3] (setting [7]), over 50 µM. In addition, the inhibition at 50 µM with Escherichia coli ∆tolC is 19 ± 14%; in the data set with E. coli K12, under 10%. For the same compound, the CC50 in “in vitro” (HepG2 CC50, 48 h, MTT) was over 50 µM.
For the compound `CC(C)(C)OC(=O)N1CCN=C1NCc1cc(NC(=O)c2cc(-c3cc(Cl)ccc3O)[nH]n2)cc(C(F)(F)F)c1` [Compound 9D], in [1] (setting [6]), the IC50 was 0.15 µM. Besides, the MIC in the data set with Escherichia coli ∆tolC (read-out: EcΔtolC MIC95) came to 24 µM (≈ 13.9 µg/mL); in the data set with Escherichia coli ∆tolC (read-out: Ec∆tolC MIC95 (µM)), 24 µM (≈ 13.9 µg/mL); in [2] (Table 1 and main text), 21 µM (≈ 12.2 µg/mL); in data set [2] (setting [7]) it was 21 ± 9 µM (≈ 12.2 µg/mL); in data set [3] (Table 1 and main text), 12 µM (≈ 6.95 µg/mL); in data set [3] (setting [7]) it was 12 ± 3 µM (≈ 6.95 µg/mL). Also, the “EcΔtolC MIC95” value in the data set with Escherichia coli ∆tolC (Table 1 and main text) came to 24.0 µM. Besides, the inhibition at 50 µM was 81.6 ± 0.6% in the data set on Acinetobacter baumannii and 21% in data set [5]. Also, the MIC90 in data set [4] was 16 µM (≈ 9.26 µg/mL). This compound yielded a CC50 in the data set “in vitro” (HepG2 CC50, 48 h, MTT) of 14 µM.
With `CC(C)(C)OC(=O)N1CCN(Cc2ccc(NC(=O)c3cc(-c4cc(Cl)ccc4O)[nH]n3)cc2)CC1` [Compound 4B], in [1] (setting [6]), the IC50 was determined as 0.2 µM. For the same compound, the MIC with Escherichia coli ∆tolC (read-out: EcΔtolC MIC95) was over 50 µM; in data set [2] (Table 1 and main text) it was over 50 µM; in data set [2] (setting [7]), over 50 µM; in data set [3] (Table 1 and main text), over 50 µM; in [3] (setting [7]), over 50 µM. For the same compound, the inhibition at 50 µM in the data set on E. coli K12 was determined as 17 ± 13%. Also, the CC50 in “in vitro” (HepG2 CC50 (µM), Table S2, with standard deviation) was determined as 7.4 ± 0.7 µM; in “in vitro” (HepG2 CC50, 48 h, MTT) it was 7 µM.
For `Cc1ccc(NC(=O)c2cc(-c3cc(Cl)ccc3O)[nH]n2)cc1` [Compound 1d], the IC50 in [1] (setting [6]) is over 2 µM; in data set [1] (Table 1 and main text), 2.4 µM. Further, the MIC in the data set with Escherichia coli ∆tolC (read-out: EcΔtolC MIC95) was over 50 µM; in data set [2] (Table 1 and main text), over 50 µM; in [2] (setting [7]), over 50 µM; in data set [3] (Table 1 and main text), over 50 µM; in data set [3] (setting [7]) it was over 50 µM. Besides, the inhibition at 50 µM in the data set with Escherichia coli ∆tolC was under 10%. In the data set “in vitro” (HepG2 CC50, 48 h, MTT), this compound had a CC50 of over 50 µM.
As to `N=C(N)N1CCN(C(=O)c2cc(-c3cc(Cl)ccc3O)[nH]n2)CC1` [Compound 14G], in data set [1] (setting [6]), the IC50 is over 5 µM. Further, in data set [1] (Table 1 and main text), the “PfNF54 IC50” value is “inactive”. Further, the MIC in the data set on Escherichia coli ∆tolC (read-out: EcΔtolC MIC95) is over 50 µM; in [2] (Table 1 and main text) it was over 50 µM; in data set [2] (setting [7]), over 50 µM; in data set [3] (Table 1 and main text), over 50 µM; in data set [3] (setting [7]) it was over 50 µM. Also, the inhibition at 50 µM in the data set with Escherichia coli ∆tolC came to 18 ± 9%. In addition, the MIC90 in [4] is over 64 µM. For the same compound, in “in vitro” (HepG2 CC50, 48 h, MTT), the CC50 is over 50 µM.
Regarding `CC(C)(C)OC(=O)N1CCN=C1NCc1ccc(NC(=O)c2cc(-c3cc(Cl)ccc3O)[nH]n2)cc1` [Compound 8D], the MIC in the data set on Escherichia coli ∆tolC (read-out: EcΔtolC MIC95) was over 50 µM; in [2] (Table 1 and main text) it was over 50 µM; in data set [2] (setting [7]) it was over 50 µM; in data set [3] (Table 1 and main text), over 50 µM; in [3] (setting [7]), over 50 µM. In addition, the inhibition at 50 µM in the data set with Escherichia coli ∆tolC was 18.5 ± 0.8%. The MIC90 in data set [4] is over 64 µM. In “in vitro” (HepG2 CC50, 48 h, MTT), the CC50 was over 50 µM.
As to `CC(C)(C)OC(=O)N1CCN(c2cc(NC(=O)c3cc(-c4cc(Cl)ccc4O)[nH]n3)ccc2C(F)(F)F)CC1` [Compound 13B, tert-Butyl 4-(5-(5-(5-chloro-2-hydroxyphenyl)-1H-pyrazole-3-carboxamido)-2-(trifluoromethyl)phenyl)piperazine-1-carboxylate], the IC50 in [1] (setting [6]) is 0.342 µM. In addition, the MIC was over 50 µM in the data set with Escherichia coli ∆tolC (read-out: EcΔtolC MIC95); over 50 µM in data set [2] (Table 1 and main text); over 50 µM in [3] (Table 1 and main text). In addition, the inhibition at 50 µM in the data set on Escherichia coli ∆tolC is under 10%. In the data set “in vitro” (HepG2 CC50, 48 h, MTT), this compound displayed a CC50 of 2.8 µM.
For `CC(C)(C)OC(=O)NCc1ccc(NC(=O)c2cc(-c3cc(Cl)ccc3O)[nH]n2)cc1C(F)(F)F` [Compound 10B, tert-Butyl (4-(5-(5-chloro-2-hydroxyphenyl)-1H-pyrazole-3-carboxamido)-2-(trifluoromethyl)benzyl)carbamate], in data set [1] (setting [6]), the IC50 is 0.19 µM. The MIC in the data set with Escherichia coli ∆tolC (read-out: EcΔtolC MIC95) was over 50 µM; in data set [2] (Table 1 and main text), over 50 µM; in data set [2] (setting [7]) it was over 50 µM; in [3] (Table 1 and main text), over 50 µM; in [3] (setting [7]), over 50 µM. The inhibition at 50 µM with Escherichia coli ∆tolC, with E. coli K12 and in the data set with Acinetobacter baumannii was under 10% in each case. The same compound showed a CC50 in “in vitro” (HepG2 CC50, 48 h, MTT) of over 50 µM.
